Results as given in the supplement of paper PMC10307832.

Legend:
Assay in all cases: relative viability (nuclei count vs DMSO), 5 days (fraction); higher = more cells survive
[1] = compound: Cc1ccc(C(=O)Nc2ccc(CN3CCN(C)CC3)c(C(F)(F)F)c2)cc1C#Cc1cnc2cccnn12 [Ponatinib]
Method in brief: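 For viability, nuclei in each treated well were divided by nuclei in vehicle wells and the median across plates was taken. Lung cancer cell lines in 1536-well plates were pinned with five library-drug doses (not always all listed) spaced by √10, cultured 5 days without medium change, and imaged at 4× after Hoechst staining, with plates passing only at control CV below 25% and at least one doubling.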

[2] = compound: Cc1ccc(C(=O)Nc2ccc(CN3CCN(C)CC3)c(C(F)(F)F)c2)cc1C#Cc1cnc2cccnn12 [Ponatinib] + CC(C)C[C@H](NC(=O)[C@H](Cc1ccccc1)NC(=O)c1cnccn1)B(O)O [Bortezomib] (partner 0.002 µM)
Method in brief: (§1)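 The day after seeding in 1536-well plates, lung cancer cell lines were treated by pin tool with a single drug, or with a fixed anchor-drug dose together with five library-drug doses (not always all listed) in √10 steps. After 5 days, a combined fix-and-stain solution (final 0.05% Triton X-100, 1% formaldehyde, 1 ug/ml Hoechst) was added. Nuclei counted on 4× images gave relative viability as treated counts over vehicle counts, reported as the median of duplicate plates.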

[3] = compound: Cc1ccc(C(=O)Nc2ccc(CN3CCN(C)CC3)c(C(F)(F)F)c2)cc1C#Cc1cnc2cccnn12 [Ponatinib] + Nc1nc2[nH]cc(CCc3ccc(C(=O)N[C@@H](CCC(=O)O)C(=O)O)cc3)c2c(=O)[nH]1 [Pemetrexed] (partner 0.2 µM)
Method in brief: as §1

[4] = compound: Cc1ccc(Nc2nccc(N(C)c3ccc4c(C)n(C)nc4c3)n2)cc1S(N)(=O)=O [Pazopanib] + N=C(N)NC(=N)NCCc1ccccc1 [Phenformin] (partner 250 µM)
Method in brief: as §1

Cell Line | relative viability ([1]; 0.002 µM) | relative viability ([1]; 0.006325 µM) | relative viability ([1]; 0.06325 µM) | relative viability ([1]; 0.2 µM) | relative viability ([2]; first compound 0.002 µM) | relative viability ([2]; first compound 0.006325 µM) | relative viability ([2]; first compound 0.06325 µM) | relative viability ([2]; first compound 0.2 µM) | relative viability ([3]; first compound 0.002 µM) | relative viability ([3]; first compound 0.006325 µM) | relative viability ([3]; first compound 0.06325 µM) | relative viability ([3]; first compound 0.2 µM) | relative viability ([4]; first compound 0.01 µM) | relative viability ([4]; first compound 0.03162 µM) | relative viability ([4]; first compound 0.1 µM) | relative viability ([4]; first compound 0.3162 µM) | relative viability ([4]; first compound 1 µM)
HCC-827 | 0.983 | 1.03 | 1.07 | 1.03 | 1 | 1.01 | 1.05 | 0.982 | 0.234 | 0.304 | 0.288 | 0.247 | 0.46 | 0.466 | 0.374 | 0.426 | 0.414
HOP-62 | 0.921 | 0.86 | 0.912 | 0.857 | 0.728 | 0.571 | 0.597 | 0.701 | 0.268 | 0.33 | 0.276 | 0.304 | 0.654 | 0.627 | 0.734 | 0.673 | 0.665
IA-LM | 0.872 | 0.903 | 0.953 | 0.802 | 0.695 | 0.623 | 0.785 | 0.79 | – | – | – | – | – | – | – | – | –
LC-2-ad | 0.85 | 0.885 | 0.785 | 0.768 | 0.964 | 1.01 | 0.911 | 0.875 | 0.274 | 0.272 | 0.296 | 0.263 | 0.618 | 0.649 | 0.584 | 0.689 | 0.685
LCLC-97TM1 | 0.925 | 0.996 | 0.961 | 0.892 | 0.309 | 0.818 | 0.74 | 0.483 | 0.166 | 0.142 | 0.167 | 0.161 | 0.242 | 0.419 | 0.389 | 0.43 | 0.452
LCLC-103H | 0.925 | 1 | 1.05 | 0.957 | 1.05 | 1.12 | 1.23 | 1.25 | 0.446 | 0.5 | 0.483 | 0.416 | 0.247 | 0.338 | 0.344 | 0.344 | 0.342
LK-2 | 0.872 | 1 | 0.816 | 0.73 | – | – | – | – | 0.281 | 0.305 | 0.186 | 0.247 | – | 0.449 | 0.639 | 0.594 | 0.301
LOU-NH91 | 0.957 | 1.03 | 1.04 | 0.938 | 0.399 | 0.543 | 0.557 | 0.568 | 0.335 | 0.421 | 0.463 | 0.415 | 0.635 | 0.731 | 0.605 | 0.751 | 0.731
LU99A | 0.94 | 1.02 | 0.943 | 0.939 | 1.14 | 1.07 | 1.21 | 1.24 | 0.17 | 0.173 | 0.186 | 0.315 | 0.725 | 0.943 | 0.796 | 0.923 | 0.945
LXF-289 | 0.948 | 0.998 | 0.984 | 0.969 | 0.946 | 0.996 | 1 | 0.98 | 0.74 | 0.846 | 0.982 | 0.891 | 0.563 | 0.554 | 0.507 | 0.533 | 0.525
